Laboratory results: ChEMBL document CHEMBL1137769, “Second generation of BACE-1 inhibitors. Part 1: The need for improved pharmacokinetics” (Bioorg Med Chem Lett, 2009)
One block for each molecule: values may come before it.

Key:
Beta-secretase 1 [1] = biological target: T1, Beta-secretase 1 (Homo sapiens, UniProt P56817); experiment: Inhibition of BACE1
Beta-secretase 2 = biological target: T2, Beta-secretase 2 (Homo sapiens, UniProt Q9Y5Z0); experiment: Inhibition of BACE2
T2 sequence (Q9Y5Z0 whole entry): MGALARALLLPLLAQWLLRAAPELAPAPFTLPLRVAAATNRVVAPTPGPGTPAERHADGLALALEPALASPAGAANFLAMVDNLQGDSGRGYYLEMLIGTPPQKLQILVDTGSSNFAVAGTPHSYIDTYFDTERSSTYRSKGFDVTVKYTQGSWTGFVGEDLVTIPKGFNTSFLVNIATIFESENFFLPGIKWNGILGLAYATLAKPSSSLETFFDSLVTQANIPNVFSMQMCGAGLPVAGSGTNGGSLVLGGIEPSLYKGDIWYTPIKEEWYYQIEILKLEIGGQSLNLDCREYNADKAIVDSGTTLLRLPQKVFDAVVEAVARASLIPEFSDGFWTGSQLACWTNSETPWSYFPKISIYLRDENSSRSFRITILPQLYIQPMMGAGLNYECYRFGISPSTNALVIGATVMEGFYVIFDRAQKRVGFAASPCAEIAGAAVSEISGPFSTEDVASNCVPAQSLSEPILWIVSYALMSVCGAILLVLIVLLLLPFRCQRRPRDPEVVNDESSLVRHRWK

Cathepsin D = Cathepsin D (Homo sapiens, UniProt P07339); experiment: Inhibition of cathepsin-D
Chain of Cathepsin D (P07339 65-162 limits assumed): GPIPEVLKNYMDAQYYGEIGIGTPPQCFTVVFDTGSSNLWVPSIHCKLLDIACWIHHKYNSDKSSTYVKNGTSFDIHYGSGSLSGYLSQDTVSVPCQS
Chain of Cathepsin D (P07339 169-412 limits assumed): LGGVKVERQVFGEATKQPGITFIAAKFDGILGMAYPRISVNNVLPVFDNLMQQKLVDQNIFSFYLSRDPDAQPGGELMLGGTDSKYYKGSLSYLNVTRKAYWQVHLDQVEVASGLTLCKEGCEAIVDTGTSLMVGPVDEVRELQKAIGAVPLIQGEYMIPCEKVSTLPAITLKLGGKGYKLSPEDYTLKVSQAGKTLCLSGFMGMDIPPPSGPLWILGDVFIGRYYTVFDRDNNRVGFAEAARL

[2] = Blood clearance in rat at 1 mg/kg, iv; type: ADME, organism-based; parameters: dose 1 mg/kg, route intravenous; conditions: whole blood
Beta-secretase 1 [3] = biological target: T1, Beta-secretase 1; experiment: Inhibition of BACE
Cytochrome P450 1A2 = biological target: T3, Cytochrome P450 1A2 (Homo sapiens, UniProt P05177); experiment: Inhibition of CYP1A2; type: ADME
T3 sequence (P05177 whole entry): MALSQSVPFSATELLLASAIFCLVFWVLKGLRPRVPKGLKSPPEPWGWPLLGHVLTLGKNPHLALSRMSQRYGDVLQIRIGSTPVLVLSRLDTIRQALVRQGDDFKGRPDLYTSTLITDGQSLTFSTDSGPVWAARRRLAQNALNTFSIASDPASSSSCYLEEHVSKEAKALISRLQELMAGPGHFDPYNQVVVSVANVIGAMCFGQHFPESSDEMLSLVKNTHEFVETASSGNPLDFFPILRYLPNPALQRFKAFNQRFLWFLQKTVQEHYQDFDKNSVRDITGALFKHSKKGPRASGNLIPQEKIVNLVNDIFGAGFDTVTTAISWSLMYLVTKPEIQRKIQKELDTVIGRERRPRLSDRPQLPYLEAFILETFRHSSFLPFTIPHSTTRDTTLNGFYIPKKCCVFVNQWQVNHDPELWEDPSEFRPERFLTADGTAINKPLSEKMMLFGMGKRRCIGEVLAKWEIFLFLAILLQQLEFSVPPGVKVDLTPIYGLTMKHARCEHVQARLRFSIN

Cytochrome P450 2C9 = Cytochrome P450 2C9 (Homo sapiens, UniProt P11712); experiment: Inhibition of CYP2C9; type: ADME
Chain of Cytochrome P450 2C9 (P11712 whole entry): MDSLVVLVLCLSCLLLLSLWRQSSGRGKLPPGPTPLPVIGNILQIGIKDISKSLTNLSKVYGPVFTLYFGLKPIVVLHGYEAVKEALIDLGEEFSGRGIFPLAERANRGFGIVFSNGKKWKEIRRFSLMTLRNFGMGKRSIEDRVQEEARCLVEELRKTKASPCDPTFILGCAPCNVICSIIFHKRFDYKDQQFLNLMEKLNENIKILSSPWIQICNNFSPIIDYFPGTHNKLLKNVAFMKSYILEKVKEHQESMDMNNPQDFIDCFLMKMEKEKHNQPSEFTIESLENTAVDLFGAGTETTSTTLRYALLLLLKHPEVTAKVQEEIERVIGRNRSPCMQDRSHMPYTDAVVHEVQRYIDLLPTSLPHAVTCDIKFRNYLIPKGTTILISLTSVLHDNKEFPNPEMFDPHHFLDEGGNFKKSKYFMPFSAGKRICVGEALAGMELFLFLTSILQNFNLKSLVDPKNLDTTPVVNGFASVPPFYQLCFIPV

Cytochrome P450 2C19 = Cytochrome P450 2C19 (Homo sapiens, UniProt P33261); experiment: Inhibition of CYP2C19; type: ADME
Chain of Cytochrome P450 2C19 (P33261 whole entry): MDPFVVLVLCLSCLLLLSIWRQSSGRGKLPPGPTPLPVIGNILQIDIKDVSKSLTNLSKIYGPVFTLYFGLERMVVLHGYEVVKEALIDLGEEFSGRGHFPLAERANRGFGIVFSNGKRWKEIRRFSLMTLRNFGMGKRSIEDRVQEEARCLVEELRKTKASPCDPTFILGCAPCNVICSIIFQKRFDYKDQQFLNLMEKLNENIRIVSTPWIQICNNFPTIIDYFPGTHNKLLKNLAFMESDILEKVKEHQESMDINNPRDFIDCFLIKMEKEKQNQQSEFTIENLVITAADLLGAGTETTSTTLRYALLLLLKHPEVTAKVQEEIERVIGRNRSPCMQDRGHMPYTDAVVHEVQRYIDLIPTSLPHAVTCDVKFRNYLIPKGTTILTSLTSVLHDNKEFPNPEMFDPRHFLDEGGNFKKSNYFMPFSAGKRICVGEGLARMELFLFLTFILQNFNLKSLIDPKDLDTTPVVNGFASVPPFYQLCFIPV

Cytochrome P450 2D6 = Cytochrome P450 2D6 (Homo sapiens, UniProt P10635); experiment: Inhibition of CYP2D6; type: ADME
Chain of Cytochrome P450 2D6 (P10635 whole entry): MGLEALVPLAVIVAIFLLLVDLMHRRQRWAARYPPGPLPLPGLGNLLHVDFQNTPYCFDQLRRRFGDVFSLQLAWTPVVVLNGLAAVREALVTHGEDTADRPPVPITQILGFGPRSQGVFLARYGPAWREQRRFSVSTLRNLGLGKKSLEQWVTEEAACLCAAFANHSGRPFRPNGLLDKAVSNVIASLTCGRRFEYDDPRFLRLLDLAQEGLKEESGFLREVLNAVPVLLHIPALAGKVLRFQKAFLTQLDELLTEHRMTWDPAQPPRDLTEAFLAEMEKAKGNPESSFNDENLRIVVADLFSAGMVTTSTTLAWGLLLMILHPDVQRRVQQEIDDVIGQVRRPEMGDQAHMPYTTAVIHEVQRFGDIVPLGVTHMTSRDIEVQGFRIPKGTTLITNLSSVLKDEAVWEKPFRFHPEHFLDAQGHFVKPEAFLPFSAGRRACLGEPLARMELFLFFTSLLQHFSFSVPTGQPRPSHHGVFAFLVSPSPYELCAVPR

Cytochrome P450 3A4 [4] = biological target: T4, Cytochrome P450 3A4 (Homo sapiens, UniProt P08684); experiment: Inhibition of CYP3A4 using diethoxyfluorescein as substrate; type: ADME
T4 sequence (P08684 whole entry): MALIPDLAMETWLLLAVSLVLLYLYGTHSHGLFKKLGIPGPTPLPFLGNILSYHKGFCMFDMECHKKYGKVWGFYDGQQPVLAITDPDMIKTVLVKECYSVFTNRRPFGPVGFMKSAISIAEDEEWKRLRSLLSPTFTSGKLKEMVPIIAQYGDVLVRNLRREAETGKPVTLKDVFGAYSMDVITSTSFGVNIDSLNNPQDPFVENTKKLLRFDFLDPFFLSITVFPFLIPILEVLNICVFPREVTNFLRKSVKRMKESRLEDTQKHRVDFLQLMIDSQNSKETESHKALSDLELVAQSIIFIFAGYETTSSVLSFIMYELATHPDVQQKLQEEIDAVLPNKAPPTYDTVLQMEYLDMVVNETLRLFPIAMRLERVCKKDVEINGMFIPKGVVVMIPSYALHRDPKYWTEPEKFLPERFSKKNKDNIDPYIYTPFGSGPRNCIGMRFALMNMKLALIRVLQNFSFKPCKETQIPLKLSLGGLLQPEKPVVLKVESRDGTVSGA

Cytochrome P450 3A4 [5] = biological target: T4, Cytochrome P450 3A4; experiment: Inhibition of CYP3A4 using 7-benzyloxyquinoline as substrate; type: ADME
[6] = Lipophilicity, log D at pH 7.4; type: physicochemical; conditions: buffer

T1 sequence (P56817 whole entry): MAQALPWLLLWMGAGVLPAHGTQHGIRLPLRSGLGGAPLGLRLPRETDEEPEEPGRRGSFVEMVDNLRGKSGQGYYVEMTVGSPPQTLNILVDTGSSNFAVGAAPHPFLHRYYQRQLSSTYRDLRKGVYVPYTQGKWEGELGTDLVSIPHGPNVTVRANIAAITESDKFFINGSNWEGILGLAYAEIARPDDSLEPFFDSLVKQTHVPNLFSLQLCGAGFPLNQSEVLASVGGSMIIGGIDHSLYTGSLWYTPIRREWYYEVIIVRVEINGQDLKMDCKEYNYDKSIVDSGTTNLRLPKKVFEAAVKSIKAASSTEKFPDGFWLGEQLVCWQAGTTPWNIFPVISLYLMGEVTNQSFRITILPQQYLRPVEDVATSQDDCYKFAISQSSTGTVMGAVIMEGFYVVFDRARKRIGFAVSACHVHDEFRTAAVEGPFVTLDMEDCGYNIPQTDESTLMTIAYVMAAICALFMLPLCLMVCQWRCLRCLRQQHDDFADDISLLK

SMILES: CCNc1cc(C(=O)N[C@@H](Cc2ccccc2)[C@H](O)CNCc2cncc(C#N)c2)cc(N2CCCCS2(=O)=O)c1
IC50 (Beta-secretase 1 [1]): 0.04 µM
IC50 (Beta-secretase 2): 7.76 µM
IC50 (Cathepsin D): 35.5 µM

SMILES: CCn1ccc2c(N3CCCC3=O)cc(C(=O)N[C@@H](Cc3ccccc3)[C@H](O)CNCc3cccc(C(F)(F)F)c3)cc21
IC50 (Beta-secretase 2): 8.32 µM
IC50 (Cathepsin D): 13.5 µM

SMILES: CCNc1cc(C(=O)N[C@@H](Cc2ccccc2)[C@H](O)CNCc2cnn(CC)c2)cc(N2CCCCS2(=O)=O)c1
IC50 (Beta-secretase 1 [3]): 0.01 µM
IC50 (Cytochrome P450 1A2): > 89 µM
IC50 (Cytochrome P450 2C9): > 89 µM
IC50 (Cytochrome P450 2C19): > 89 µM
IC50 (Cytochrome P450 2D6): > 89 µM
IC50 (Cytochrome P450 3A4 [4]): > 89 µM
IC50 (Cytochrome P450 3A4 [5]): > 89 µM
logD [6]: 0.53

SMILES: CCc1cn(C)c2c(N3CCCC3=O)cc(C(=O)N[C@@H](Cc3ccccc3)[C@H](O)CNCc3cccc(C(F)(F)F)c3)cc12
IC50 (Beta-secretase 1 [1]): 0.04 µM
IC50 (Beta-secretase 2): 5.13 µM
IC50 (Cathepsin D): 3.72 µM

SMILES: CCNc1cc(C(=O)N[C@@H](Cc2ccccc2)[C@H](O)CNCc2cccc(C(F)(F)F)c2)cc(N2CCCC2=O)c1C
IC50 (Beta-secretase 1 [1]): 0.063 µM
IC50 (Beta-secretase 2): 9.12 µM
IC50 (Cathepsin D): 4.27 µM

SMILES: CCNc1cc(C(=O)N[C@@H](Cc2ccccc2)[C@H](O)CNCc2cccc(C(F)(F)F)c2)cc(N2CCCC2=O)c1
IC50 (Beta-secretase 1 [1]): 0.049 µM
IC50 (Beta-secretase 2): 4.49 µM
IC50 (Cathepsin D): 6.58 µM

Continued, values first:

IC50 (Beta-secretase 1 [1]): 0.019 µM
IC50 (Beta-secretase 2): 5.75 µM
IC50 (Cathepsin D): 53.7 µM
SMILES: CCn1cnc2c(N3CCCC3=O)cc(C(=O)N[C@@H](Cc3ccccc3)[C@H](O)CNCc3cccc(C(F)(F)F)c3)cc21

IC50 (Beta-secretase 1 [1]): 0.006 µM
IC50 (Beta-secretase 2): 0.35 µM
IC50 (Cathepsin D): 0.6 µM
SMILES: CCNc1cc(C(=O)N[C@@H](Cc2ccccc2)[C@H](O)CNC(C)(C)c2cccc(C(F)(F)F)c2)cc(N2CCCCS2(=O)=O)c1

IC50 (Beta-secretase 1 [1]): 0.018 µM
IC50 (Beta-secretase 2): 4.17 µM
IC50 (Cathepsin D): 0.6 µM
SMILES: CCNc1cc(C(=O)N[C@@H](Cc2ccccc2)[C@H](O)CNCc2cccc(C(F)(F)F)c2)cc(N2CCCCS2(=O)=O)c1OC

IC50 (Beta-secretase 1 [1]): 0.035 µM
clearance [2]: 83 mL/min/kg
SMILES: CCn1ccc2c(N3CCCC3=O)cc(C(=O)N[C@@H](Cc3ccccc3)[C@H](O)CNC(C)(C)c3cccc(OC)c3)cc21
